For 6 compounds, EC50 results are on record in patent publication US9050286B2, “Use of peptidic vasopression receptor agonists” (Ferring B.V., priority 2007, dated 2015).

Bridge positions count the residues as written; N and C are the ends. Square brackets hold non-standard residues; d marks the D form. Peptide text beside a SMILES is read from it. Ala(cPent) = N[C@@H](CC1CCCC1)C(=O)O; Orn(iPr) = CC(C)NCCC[C@H](N)C(=O)O; Cha = N[C@@H](CC1CCCCC1)C(=O)O; Orn = NCCC[C@H](N)C(=O)O; Dab = NCC[C@H](N)C(=O)O; Ac4c = NC1(C(=O)O)CCC1

The target of this assay is T1, hV1a receptor (Homo sapiens, UniProt P37288).
T1 construct: expressed in transfected cells; host or cells: HEK-293
T1 sequence (P37288 whole entry): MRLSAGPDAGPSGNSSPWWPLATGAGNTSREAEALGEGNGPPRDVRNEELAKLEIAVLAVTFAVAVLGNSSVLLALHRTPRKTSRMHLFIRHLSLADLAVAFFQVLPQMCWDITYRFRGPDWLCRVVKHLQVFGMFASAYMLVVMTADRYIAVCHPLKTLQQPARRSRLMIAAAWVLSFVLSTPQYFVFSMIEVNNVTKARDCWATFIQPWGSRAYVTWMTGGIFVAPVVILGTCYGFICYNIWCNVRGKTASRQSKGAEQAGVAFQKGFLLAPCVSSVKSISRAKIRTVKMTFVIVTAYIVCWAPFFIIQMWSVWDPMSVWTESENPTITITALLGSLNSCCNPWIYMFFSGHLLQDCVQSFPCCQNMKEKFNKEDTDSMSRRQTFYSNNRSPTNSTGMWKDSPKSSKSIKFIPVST
Briefly: hV1a receptor agonist transcriptional reporter (luciferase) assay in transiently transfected HEK-293 cells. To be noted: agonist activity; HEK-293 cells transiently transfected with hV1a receptor and calcium-responsive luciferase reporter; 5 hours exposure; geometric mean of at least three independent experiments; read-out: EC50 (median effective concentration). It counts as cell-based. The method, then: Agonist activity of compounds on the hV1a receptor was determined in a transcriptional reporter assay by transiently transfecting a hV1a receptor expression DNA into HEK-293 cells in concert with a reporter DNA containing intracellular calcium responsive promoter elements regulating expression of firefly luciferase. See Boss, V., Talpade, D. J., Murphy, T. J. J. Biol. Chem. 1996, May 3; 271(18), 10429-10432 for further guidance on this assay. […] Arginine-vasopressin (AVP) was used as an internal control in each experiment, and compounds were tested in at least three independent experiments.
The results of the in vitro assays are depicted in table 1 supra. The EC50 value given is the geometric mean expressed in nanomol/L (nM). Selectivity values are given as EC50 ratios.
For orientation: In a reporter assay the amount or activity of a reporter protein is the signal.
For `CC[C@H](C)[C@@H]1NC(=O)C2(CCC2)NC(=O)[C@@H](N)CSSC[C@@H](C(=O)N2CCC[C@H]2C(=O)N[C@@H](CCCN)C(=O)NCC(N)=O)NC(=O)[C@H](CC(N)=O)NC(=O)[C@H](CC(N)=O)NC1=O` [Compound 6] (H-C[Ac4c]INNCP[Orn]G-NH2; disulfide 1-6), the EC50 stood at 7.93 nM. In the case of `CC[C@H](C)[C@@H]1NC(=O)[C@H](CC2CCCC2)NC(=O)[C@@H](N)CSSC[C@@H](C(=O)N2CCC[C@H]2C(=O)N[C@@H](CCCN)C(=O)NCC(N)=O)NC(=O)[C@H](CC(N)=O)NC(=O)[C@H](CC(N)=O)NC1=O` [Compound 7] (H-C[Ala(cPent)]INNCP[Orn]G-NH2; disulfide 1-6) it was 7.7 nM; in that of `CC[C@H](C)[C@@H]1NC(=O)C2(CCC2)NC(=O)[C@@H](N)CSSC[C@@H](C(=O)N2CCC[C@H]2C(=O)N[C@@H](CCN)C(=O)NCC(N)=O)NC(=O)[C@H](CC(N)=O)NC(=O)[C@H](CC(N)=O)NC1=O` [Compound 9] (H-C[Ac4c]INNCP[Dab]G-NH2; disulfide 1-6; N-terminus assumed), 14.8 nM; in that of `CC[C@H](C)[C@@H]1NC(=O)[C@H](CC2CCCCC2)NC(=O)[C@@H](N)CSSC[C@@H](C(=O)N2CCC[C@H]2C(=O)N[C@@H](CCN)C(=O)NCC(N)=O)NC(=O)[C@H](CC(N)=O)NC(=O)[C@H](CC(N)=O)NC1=O` [Compound 12] (H-C[Cha]INNCP[Dab]G-NH2; disulfide 1-6; N-terminus assumed), 2.28 nM.

Regarding `CC[C@H](C)[C@@H]1NC(=O)[C@H](CC2CCCCC2)NC(=O)[C@@H](N)CSSC[C@@H](C(=O)N2CCC[C@H]2C(=O)N[C@@H](CCCN)C(=O)NCC(N)=O)NC(=O)[C@H](CC(N)=O)NC(=O)[C@H](CC(N)=O)NC1=O` [Compound 8] (H-C[Cha]INNCP[Orn]G-NH2; disulfide 1-6), the EC50 was 0.75 nM. In the case of `CC[C@H](C)[C@@H]1NC(=O)[C@H](CC2CCCCC2)NC(=O)[C@@H](N)CSSC[C@@H](C(=O)N2CCC[C@H]2C(=O)N[C@@H](CCCNC(C)C)C(=O)NCC(N)=O)NC(=O)[C@H](CC(N)=O)NC(=O)[C@H](CC(N)=O)NC1=O` [Compound 4, [Cha^2, Asn^4, Orn (i-Pr)^8]VT] (H-C[Cha]INNCP[Orn(iPr)]G-NH2; disulfide 1-6) it was 10.7 nM.
